Values of other authors as cited in US10478399B2, “Modified release tablet composition comprising mirabegron” (SYNTHON B.V., priority 2017, dated 2019).

Experiments:
[1] = neutral to acidic pH
[2] = presence of food in the GI tract

Nc1nc(CC(=O)Nc2ccc(CCNC[C@H](O)c3ccccc3)cc2)cs1 [Mirabegron, (R)-2-(2-aminothiazol-4-yl)-4′-[2-[(2-hydroxy-2-phenylethyl)amino]ethyl]acetic acid anilide]
permeability (BCS): low permeability
solubility (BCS): high solubility
solubility in water [1]: soluble in water between neutral to acidic pH
effect of food on bioavailability [2]: affected by the presence of food
